Laboratory results taken from US20070111328A1, “Scintillation proximity assay for the identification of P-glycoprotein modulators” (priority 2005, published 2007).

Legend:
P-glycoprotein (P-gp) [1] = target: T1, P-glycoprotein (P-gp) (Homo sapiens, UniProt P08183); experiment: SPA saturation binding of [3H]-vinblastine to P-gp (KB-V1 cell membranes); parameters: endogenous in cells; host or cells: KB-V1 cells (multidrug-resistant subclone of KB-3-1, HeLa-derived); sucrose-gradient purified plasma membranes; details: [3H]-vinblastine 5 to 55 nM, specific binding fitted with Prism; read-out: KD (binding dissociation constant)
T1 sequence (P08183 whole entry): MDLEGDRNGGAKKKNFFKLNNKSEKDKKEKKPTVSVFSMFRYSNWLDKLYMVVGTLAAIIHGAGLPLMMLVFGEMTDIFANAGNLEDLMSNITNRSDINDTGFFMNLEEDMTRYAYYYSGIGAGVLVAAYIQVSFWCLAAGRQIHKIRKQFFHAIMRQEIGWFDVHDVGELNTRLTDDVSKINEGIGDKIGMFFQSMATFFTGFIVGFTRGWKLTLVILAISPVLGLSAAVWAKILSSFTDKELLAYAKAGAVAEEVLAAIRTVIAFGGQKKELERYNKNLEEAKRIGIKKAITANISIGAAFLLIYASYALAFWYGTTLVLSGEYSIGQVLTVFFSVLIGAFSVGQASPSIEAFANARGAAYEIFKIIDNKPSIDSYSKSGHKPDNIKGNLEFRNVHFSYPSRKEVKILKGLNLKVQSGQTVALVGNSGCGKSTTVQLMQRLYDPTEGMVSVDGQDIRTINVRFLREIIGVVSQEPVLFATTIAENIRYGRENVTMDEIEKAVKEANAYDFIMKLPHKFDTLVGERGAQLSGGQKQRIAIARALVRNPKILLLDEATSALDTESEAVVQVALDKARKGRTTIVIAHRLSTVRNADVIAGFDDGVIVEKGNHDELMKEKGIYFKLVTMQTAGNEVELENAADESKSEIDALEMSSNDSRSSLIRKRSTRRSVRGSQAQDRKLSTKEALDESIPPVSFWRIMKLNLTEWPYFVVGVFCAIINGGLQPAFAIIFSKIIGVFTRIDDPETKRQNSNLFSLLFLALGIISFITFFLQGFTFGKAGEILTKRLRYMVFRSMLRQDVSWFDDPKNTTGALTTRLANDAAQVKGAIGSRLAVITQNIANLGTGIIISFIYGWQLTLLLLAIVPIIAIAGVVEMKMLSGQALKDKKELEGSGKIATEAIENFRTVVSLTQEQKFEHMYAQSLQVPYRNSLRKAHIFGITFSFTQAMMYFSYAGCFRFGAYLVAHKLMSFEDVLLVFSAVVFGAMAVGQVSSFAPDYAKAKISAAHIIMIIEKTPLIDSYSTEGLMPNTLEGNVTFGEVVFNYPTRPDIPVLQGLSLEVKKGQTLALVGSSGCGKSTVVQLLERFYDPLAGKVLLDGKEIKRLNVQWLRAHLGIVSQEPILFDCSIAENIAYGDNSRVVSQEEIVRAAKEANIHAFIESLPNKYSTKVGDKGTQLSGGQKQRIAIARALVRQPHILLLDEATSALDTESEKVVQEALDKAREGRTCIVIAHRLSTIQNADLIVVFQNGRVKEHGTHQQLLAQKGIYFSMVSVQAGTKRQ
Protocol: The specific signal values versus the amount of radioligand was fitted to the equation using the Prism software (GraphPad Software Inc, San Diego, Calif.) as the following: [formula] where Bmax is the maximal binding, [L] is a ligand concentration, and KD is the binding dissociation constant. The fitting gave the KD value of 4 nM, which is in agreement with literature data.

P-glycoprotein (P-gp) [2] = target: T1, P-glycoprotein (P-gp); experiment: Scintillation proximity assay (SPA): competition with [3H]vinblastine binding to P-gp in KB-V1 cell membranes; details: mean of triplicates; for effect of test compound on P-gp specific binding signal: test compound 10 μM final concentration, FIG. 8
Protocol: The samples were incubated for an additional 3 to 24-hours.
The methods described herein are based on the scintillation proximity assay (SPA) technique and its use to detect signal changes in the presence of a test compound. […] The signal should be reduced when the test compound is a P-gp substrate and/or inhibitor because of competition on the binding site or inhibition of the binding.

Compound | effect of test compound on P-gp specific binding signal (P-glycoprotein (P-gp) [2]) | also measured
CC[C@]1(O)C[C@@H]2CN(CCc3c([nH]c4ccccc34)[C@@](C(=O)OC)(c3cc4c(cc3OC)N(C)[C@H]3[C@@](O)(C(=O)OC)[C@H](OC(C)=O)[C@]5(CC)C=CCN6CC[C@]43[C@@H]65)C2)C1 [[^3H]-vinblastine] | – | Kd (P-glycoprotein (P-gp) [1]): 4 nM
Cn1c(=O)c2c(ncn2C)n(C)c1=O [caffeine] | no impact on the P-gp signal | –
COc1cccc2c1C(=O)c1c(O)c3c(c(O)c1C2=O)C[C@@](O)(C(=O)CO)C[C@@H]3O[C@H]1C[C@H](N)[C@H](O)[C@H](C)O1 [doxorubicin] | did not appear to interfere with the P-gp signal | –
CN(Cc1cnc2nc(N)nc(N)c2n1)c1ccc(C(=O)N[C@@H](CCC(=O)O)C(=O)O)cc1 [methotrexate] | did not appear to interfere with the P-gp signal | –
Ivermectin | – | IC50 (P-glycoprotein (P-gp) [2]; read-out: IC50 values determined by SPA, inhibition of [3H]vinblastine binding to P-gp, KB-V1 membranes, WGA-Ysi beads, PRISM fit): 362 nM
